10 molecules from PubChem BioAssay AID272 (DTP/NCI, 2004) can be followed below.

SMILES strings stand for the structures. Values joined by “and” are separate entries in the source; they are usually repeats but may differ in a detail not shown here. Equal entries are not always repeated. Results filed as inconclusive are left out.

This experiment concerns Lewis lung carcinoma i.m., BDF1 mice, T/C %. In words: NCI In Vivo Anticancer Drug Screen. Data for tumor model Lewis Lung Carcinoma (intramuscular) in B6D2F1 (BDF1) mice. In outline:
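Transplantable tumour model; readout survival or tumour size; value = treated (T) / vehicle control (C).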

Setting [1] is: endpoint: median survival time, dose: 0.5 mg/kg/injection, schedule: Q01DX011 (ip), vehicle: saline, higher = longer survival.
The mark [2] stands for this setting: endpoint: median survival time, dose: 1.0 mg/kg/injection, schedule: Q01DX011 (ip), vehicle: saline, higher = longer survival.
The mark [3] stands for this setting: endpoint: mean tumor weight, dose: 12.5 mg/kg/injection, schedule: Q01DX011 (ip), vehicle: saline, higher = larger tumour.
Setting [4] is: endpoint: median survival time, dose: 12.5 mg/kg/injection, schedule: Q01DX011 (ip), vehicle: saline, higher = longer survival.

As for `CCN1/C(=C/C=C/c2oc3ccccc3[n+]2CC)Oc2ccccc21`, the T/C is 87 % of control (endpoint: mean tumor weight (est.), dose: 3.7 micrograms/kg/injection, schedule: Q01DX011 (ip), vehicle: saline, higher = larger tumour); 99 % of control (endpoint: mean tumor weight (est.), dose: 75.0 micrograms/kg/injection, schedule: Q01DX011 (ip), vehicle: saline, higher = larger tumour); 103 % of control (endpoint: mean tumor weight (est.), dose: 150.0 micrograms/kg/injection, schedule: Q01DX011 (ip), vehicle: saline, higher = larger tumour); 86 % of control (endpoint: mean tumor weight (est.), dose: 300.0 micrograms/kg/injection, schedule: Q01DX011 (ip), vehicle: saline, higher = larger tumour); 93 % of control (endpoint: median survival time, dose: 37.5 micrograms/kg/injection, schedule: Q01DX011 (ip), vehicle: saline, higher = longer survival); 87 % of control (endpoint: median survival time, dose: 300.0 micrograms/kg/injection, schedule: Q01DX011 (ip), vehicle: saline, higher = longer survival).
With `O=NN(CCCl)C(=O)NC1CCCCC1`, the T/C (endpoint: mean tumor weight, dose: 23.0 mg/kg/injection, schedule: Q01DX001 (sc), vehicle: saline, higher = larger tumour) is 61 % of control; the T/C (endpoint: mean tumor weight, dose: 39.0 mg/kg/injection, schedule: Q01DX001 (sc), vehicle: saline, higher = larger tumour) was 40 % of control; the T/C (endpoint: mean tumor weight, dose: 65.0 mg/kg/injection, schedule: Q01DX001 (sc), vehicle: saline, higher = larger tumour) is 30 % of control; the T/C (endpoint: mean tumor weight, dose: 108.0 mg/kg/injection, schedule: Q01DX001 (sc), vehicle: saline, higher = larger tumour) is 30 % of control; the T/C (endpoint: median survival time, dose: 4.0 mg/kg/injection, schedule: Q01DX011 (ip), vehicle: saline + alcohol, higher = longer survival) is 92 % of control; the T/C (endpoint: median survival time, dose: 4.0 mg/kg/injection, schedule: Q01DX011 (ip), vehicle: saline with Tween-80, higher = longer survival) was 105 % of control. Besides, the T/C was 92 % of control (endpoint: median survival time, dose: 8.0 mg/kg/injection, schedule: Q01DX011 (ip), vehicle: saline + alcohol, higher = longer survival); 108 % of control (endpoint: median survival time, dose: 14.0 mg/kg/injection, schedule: Q01DX001 (ip), vehicle: saline, higher = longer survival); 87 % of control (endpoint: median survival time, dose: 16.0 mg/kg/injection, schedule: Q01DX012 (ip), vehicle: saline + alcohol, higher = longer survival); 121 % of control (endpoint: median survival time, dose: 23.0 mg/kg/injection, schedule: Q01DX001 (ip), vehicle: saline, higher = longer survival); 87 % of control (endpoint: median survival time, dose: 23.0 mg/kg/injection, schedule: Q07DX003 (ip), vehicle: saline, higher = longer survival); 185 % of control (endpoint: median survival time, dose: 39.0 mg/kg/injection, schedule: Q01DX001 (sc), vehicle: saline, higher = longer survival). In addition, the T/C was 120 % of control (endpoint: median survival time, dose: 39.0 mg/kg/injection, schedule: Q07DX003 (ip), vehicle: saline, higher = longer survival); 34 % of control (endpoint: median survival time, dose: 65.0 mg/kg/injection, schedule: Q01DX001 (ip), vehicle: saline, higher = longer survival); 191 % of control (endpoint: median survival time, dose: 65.0 mg/kg/injection, schedule: Q01DX001 (sc), vehicle: saline, higher = longer survival); 25 % of control (endpoint: median survival time, dose: 108.0 mg/kg/injection, schedule: Q01DX001 (ip), vehicle: saline, higher = longer survival); 166 % of control (endpoint: median survival time, dose: 108.0 mg/kg/injection, schedule: Q01DX001 (sc), vehicle: saline, higher = longer survival).
For `O=c1[nH]c(=O)n(C2CC(O)C(CO)O2)cc1C(F)(F)F` (centres undefined), the T/C was 101 % of control (endpoint: median survival time, dose: 2.5 mg/kg/injection, schedule: Q01DX009 (ip), vehicle: saline, higher = longer survival); 93 % of control (endpoint: median survival time, dose: 10.0 mg/kg/injection, schedule: Q01DX009 (ip), vehicle: saline, higher = longer survival); 94 % of control and 101 % of control (endpoint: median survival time, dose: 20.0 mg/kg/injection, schedule: Q01DX009 (ip), vehicle: saline, higher = longer survival).
As to `CC(=O)c1c(O)c(C)c(O)c2c1OC1=CC(=O)C(C(C)=O)C(=O)C12C` (centres undefined), the T/C runs as follows: (endpoint: mean tumor weight, dose: 53.0 mg/kg/injection, schedule: Q01DX011 (ip), vehicle: other, higher = larger tumour) 110 % of control; (endpoint: mean tumor weight, dose: 79.0 mg/kg/injection, schedule: Q01DX011 (ip), vehicle: other, higher = larger tumour) 92 % of control; (endpoint: mean tumor weight, dose: 118.0 mg/kg/injection, schedule: Q01DX011 (ip), vehicle: other, higher = larger tumour) 105 % of control; (endpoint: mean tumor weight, dose: 177.0 mg/kg/injection, schedule: Q01DX011 (ip), vehicle: other, higher = larger tumour) 77 % of control; (endpoint: median survival time, dose: 53.0 mg/kg/injection, schedule: Q01DX011 (ip), vehicle: other, higher = longer survival) 98 % of control; (endpoint: median survival time, dose: 79.0 mg/kg/injection, schedule: Q01DX011 (ip), vehicle: other, higher = longer survival) 103 % of control. In addition, under “endpoint: median survival time, dose: 177.0 mg/kg/injection, schedule: Q01DX011 (ip), vehicle: other, higher = longer survival”, the T/C was 96 % of control.
With `CC[C@](O)(C(=O)O)c1cc2n(c(=O)c1CO)Cc1cc3ccccc3nc1-2`, the T/C is 95 % of control (endpoint: mean tumor weight, dose: 0.06 mg/kg/injection, schedule: Q01DX011 (ip), vehicle: saline, higher = larger tumour); 96 % of control (endpoint: mean tumor weight, dose: 0.12 mg/kg/injection, schedule: Q01DX011 (ip), vehicle: saline, higher = larger tumour); 101 % of control (endpoint: mean tumor weight, dose: 0.25 mg/kg/injection, schedule: Q01DX011 (ip), vehicle: saline, higher = larger tumour); 91 % of control (endpoint: mean tumor weight, dose: 0.5 mg/kg/injection, schedule: Q01DX011 (ip), vehicle: saline, higher = larger tumour); 106 % of control (endpoint: mean tumor weight, dose: 1.0 mg/kg/injection, schedule: Q01DX011 (ip), vehicle: saline, higher = larger tumour); 105 % of control (endpoint: median survival time, dose: 0.06 mg/kg/injection, schedule: Q01DX011 (ip), vehicle: saline, higher = longer survival). The T/C runs as follows: (endpoint: median survival time, dose: 0.12 mg/kg/injection, schedule: Q01DX011 (ip), vehicle: saline, higher = longer survival) 116 % of control; under setting [1], 118 % of control; under setting [2], 102 % of control and 113 % of control and 124 % of control; (endpoint: median survival time, dose: 2.0 mg/kg/injection, schedule: Q01DX011 (ip), vehicle: saline, higher = longer survival) 214 % of control.
With `CCCCCCCCCCCC(c1ccccc1)[N+](C)(C)Cc1ccccc1` (centres undefined), the T/C by setting is: (endpoint: mean tumor weight (est.), dose: 0.25 mg/kg/injection, schedule: Q01DX011 (ip), vehicle: saline, higher = larger tumour) 80 % of control; (endpoint: mean tumor weight (est.), dose: 0.5 mg/kg/injection, schedule: Q01DX011 (ip), vehicle: saline, higher = larger tumour) 70 % of control; (endpoint: mean tumor weight (est.), dose: 1.0 mg/kg/injection, schedule: Q01DX011 (ip), vehicle: saline, higher = larger tumour) 61 % of control; (endpoint: median survival time, dose: 0.25 mg/kg/injection, schedule: Q01DX011 (ip), vehicle: saline, higher = longer survival) 87 % of control; under setting [1], 91 % of control; under setting [2], 120 % of control.
As for `O=[N+]([O-])O.[Ga]`, the T/C is 101 % of control (endpoint: mean tumor weight, dose: 3.12 mg/kg/injection, schedule: Q01DX011 (ip), vehicle: saline, higher = larger tumour); 104 % of control (endpoint: mean tumor weight, dose: 6.25 mg/kg/injection, schedule: Q01DX011 (ip), vehicle: saline, higher = larger tumour); 85 % of control under setting [3]; 84 % of control (endpoint: mean tumor weight, dose: 25.0 mg/kg/injection, schedule: Q01DX011 (ip), vehicle: saline, higher = larger tumour); 102 % of control (endpoint: median survival time, dose: 3.12 mg/kg/injection, schedule: Q01DX011 (ip), vehicle: saline, higher = longer survival); 97 % of control (endpoint: median survival time, dose: 6.25 mg/kg/injection, schedule: Q01DX011 (ip), vehicle: saline, higher = longer survival). Also, the T/C is, setting by setting: under setting [4], 106 % of control; (endpoint: median survival time, dose: 25.0 mg/kg/injection, schedule: Q01DX011 (ip), vehicle: saline, higher = longer survival) 93 % of control.
`CN(C)C(=O)c1cccc(COc2ccc(N3C(N)=NC(N)=NC3(C)C)cc2Cl)c1`: the T/C is 66 % of control (endpoint: mean tumor weight, dose: 3.13 mg/kg/injection, schedule: Q01DX011 (ip), vehicle: saline, higher = larger tumour); 66 % of control under setting [3]; 103 % of control (endpoint: median survival time, dose: 3.13 mg/kg/injection, schedule: Q01DX011 (ip), vehicle: saline, higher = longer survival); 88 % of control under setting [4].
Regarding `CC(=O)[C@@]1(O)CC[C@H]2[C@@H]3C[C@H](C)C4=CC(=O)C=C[C@]4(C)[C@@]3(F)[C@@H](O)C[C@@]21C`, the T/C (endpoint: mean tumor weight, dose: 12.5 mg/kg/injection, schedule: Q01DX011 (ip), vehicle: steriod suspending solution, higher = larger tumour) is 40 % of control; the T/C (endpoint: mean tumor weight, dose: 25.0 mg/kg/injection, schedule: Q01DX011 (ip), vehicle: steriod suspending solution, higher = larger tumour) is 26 % of control; the T/C (endpoint: mean tumor weight, dose: 50.0 mg/kg/injection, schedule: Q01DX011 (ip), vehicle: steriod suspending solution, higher = larger tumour) was 19 % of control; the T/C (endpoint: median survival time, dose: 12.5 mg/kg/injection, schedule: Q01DX011 (ip), vehicle: steriod suspending solution, higher = longer survival) was 107 % of control; the T/C (endpoint: median survival time, dose: 25.0 mg/kg/injection, schedule: Q01DX011 (ip), vehicle: steriod suspending solution, higher = longer survival) is 94 % of control and 112 % of control.
`O=c1[nH]cc(F)c(=O)n1C1OC(CO)C(O)C1O` (centres undefined): the T/C by setting is: (endpoint: mean tumor weight (est.), dose: 75.0 mg/kg/injection, schedule: Q01DX011 (ip), vehicle: saline, higher = larger tumour) 67 % of control; (endpoint: mean tumor weight (est.), dose: 150.0 mg/kg/injection, schedule: Q01DX011 (ip), vehicle: saline, higher = larger tumour) 99 % of control; (endpoint: mean tumor weight (est.), dose: 300.0 mg/kg/injection, schedule: Q01DX011 (ip), vehicle: saline, higher = larger tumour) 106 % of control; (endpoint: mean tumor weight (est.), dose: 600.0 mg/kg/injection, schedule: Q01DX011 (ip), vehicle: saline, higher = larger tumour) 82 % of control; (endpoint: mean tumor weight (est.), dose: 1200.0 mg/kg/injection, schedule: Q01DX011 (ip), vehicle: saline, higher = larger tumour) 84 % of control; (endpoint: median survival time, dose: 75.0 mg/kg/injection, schedule: Q01DX011 (ip), vehicle: saline, higher = longer survival) 107 % of control. Further, the T/C (endpoint: median survival time, dose: 600.0 mg/kg/injection, schedule: Q01DX011 (ip), vehicle: saline, higher = longer survival) was 98 % of control and the T/C (endpoint: median survival time, dose: 1200.0 mg/kg/injection, schedule: Q01DX011 (ip), vehicle: saline, higher = longer survival) was 107 % of control.
